Assay results published in PMC7914304 (Bioorganic & medicinal chemistry, 2020).
Read-outs that look alike come from different tables or passages of the source.

Key:
[1] = mice, oral, cited from earlier work
logP by HPLC method = format: physicochemical

| Structure (SMILES) | AUC ([1]; 0.5 mg/kg) [µM·h] | Cmax ([1]; 0.5 mg/kg) [nM] | T1/2 ([1]; 0.5 mg/kg) [h] | Tmax ([1]; 0.5 mg/kg) [h] | logP (logP by HPLC method) | AUC ([1]; 0.3 mg/kg) [µM·h] | Cmax ([1]; 0.3 mg/kg) [nM] | T1/2 ([1]; 0.3 mg/kg) [h] | Tmax ([1]; 0.3 mg/kg) [h] |
| --- | --- | --- | --- | --- | --- | --- | --- | --- | --- |
| CC(=O)N1CCC(NC(=O)NC23CC4CC(CC(C4)C2)C3)CC1 [inhibitor 1] | 0.183 | 30 | 3 | 1 | – | – | – | – | – |
| CC[C@H](C)C(=O)N1CCC(NC(=O)Nc2ccc(OC(F)(F)F)cc2)CC1 [compound 3] | – | – | – | – | 3.97 | 2.53 | 195 | 7.7 | 4 |
